Assay [1] has as its system Notch2-intracellular domain (N2-ICD). Put plainly: N2-ICD mediated pathway activation, luciferase reporter. The class given is cell-based.
Assay [2] deals with Notch target genes Hes1, cMyc and Dtx1; NICD. Put plainly: Notch target gene expression in human cancer cell lines (qRT-PCR, Western blot). Format: cell-based. As for the experimental part:
Total RNA was extracted from cells using TRIzol® extraction kit (Invitrogen). Briefly, 1×10^6 cells were washed with ice-cold 1×PBS and lysed in 1 ml of TRIzol® solution for 5 minutes at room temperature to dissociate nucleoprotein complexes. Lysed cells were then treated with 200 μl of chloroform and shaked vigorously for 15-30 seconds and incubated at room temperature for 2-3 minutes. The samples were centrifuged at 14000 rpm using Eppendorf table top centrifuge for 10 minutes at 4° C. Following centrifugation, upper aqueous phase was transferred to new eppendorf tubes. […]
Total RNA extracted from the cell was used to synthesize cDNA by reverse transcription reaction. […] RNA concentration was measured using NanoDrop®ND-1000 spectrophotometer (Witec AG) and 500 ng of total RNA was mixed with a 10 mM mix of dNTPs and 100 ng of random primers. […]
Cells were lysed in RIPA buffer (50 mM Tris.Cl, pH 7.5, 150 mM NaCl, 1% nonidet P-40, 0.5% sodium deoxycholate and 0.1% SDS) for 30 minutes at 4° C. […] The protein concentration was determined by Bradford assay using spectrophotometer (Ultrospec 3000 pro). […]
For immunoblotting, membranes were blocked with 5% milk and incubated overnight with primary antibodies at 4° C. […] Signal was detected with Super Signal West chemiluminescent substrate (Thermo Scientific, catalog number 34077). […]

The test system of another assay is RPMI8402. Put plainly: Annexin V apoptosis, RPMI8402. Format: cell-based, human. The settings on record: 10 μM, 7 days. As for the experimental part:
(§1) FIGS. 6A-6D show 6-(4-Tert-Butylphenoxy)Pyridin-3-Amine (I3) induces G0/G1 cell cycle arrest and apoptosis in human T cell acute lymphoblastic leukemia cell lines and human breast cancer cell line HCC1187. […] Percentage of Annexin V positive (apoptotic) cell population was measured using flow cytometry.
(§2) To quantitate the percentage of apoptotic cells, AnnexinV and 7AAD staining was performed. Thymic cells were suspended in 300 μl of 1× AnnexinV binding buffer (BD Biosciences, San Diego, USA) and incubated with 10 μl of AnnexinV-Cy5 antibody and 10 μl of 7AAD (BD Biosciences, San Diego, USA). Samples were incubated for 15 minutes at room temperature. FACS was performed with in one hour of antibody staining.
(§3) This 6-(4-Tert-Butylphenoxy)Pyridin-3-Amine (I3) mediated proliferative arrest could be due to induction of apoptosis or cell cycle arrest during different phases of cell cycle. […] Therefore to further elucidate the mechanisms responsible for 6-(4-Tert-Butylphenoxy)Pyridin-3-Amine (I3) mediated proliferative arrest cell cycle and apoptosis analyses were carried out. […] To investigate cell death, Annexin V staining was performed and proportion of apoptotic (AnnexinV positive) cell population was determined by flow cytometry analyses after 7 days of treatment.

Another assay has as its system TALL1. Nature of the assay: Annexin V apoptosis, TALL1. The settings on record: 10 μM, 7 days. Format: cell-based, human. The protocol: as §1, §2, §3

Each structure is given as a SMILES string. “Also recorded” adds a separate entry of the source.

Regarding `CC(C)(C)c1ccc(Oc2ccc(N)cn2)cc1` [I3, 6-(4-Tert-Butylphenoxy)Pyridin-3-Amine], in assay [1], the “pathway activation by N2-ICD” value was “could also block pathway activation by Notch1-intracellular domain (NICD) and Notch2-intracellular domain (N2-ICD); also recorded: inhibits pathway activation via intracellular domains of Notch1 (NICD) and Notch2 (N2-ICD)”. In addition, the NICD protein levels result in assay [2] (RPMI 8402, HPB ALL, KOPTK1, 24 hours, Western blot) is reported as “reduced levels of NICD”. For the same compound, the “expression of Notch target genes Hes1, cMyc and Dtx1 (mRNA and protein)” value in assay [2] (RPMI 8402, HPBALL, KOPTK1 and PANC1, 24 hours) is “induced a statistically significant downregulation of Notch target genes; also recorded: inhibits Notch signalling and downregulates its target genes in human cancer cell lines; also recorded: downregulation of Notch target genes in human T-ALL cell lines”. Moreover, the “apoptosis (Annexin V positive cells)” value in the assay with RPMI8402 and in the assay with TALL1 was “induces significant apoptosis” each time.

(Values after patent publication US10054581B1, “Inhibitors of notch signaling pathway and use thereof in treatment of cancers” (Ecole Polytechnique Federale de Lausanne (EPFL), priority 2011, dated 2018).)
